Consider one compound from PMC12610274, “Identification of Marrubiin as a Cathepsin C Inhibitor for Treating Rheumatoid Arthritis” (Molecules, 2025).

Data set [1] is described as follows: Safety evaluation in vivo (body weight, toxic reactions, H&E staining). The following applies: mice, high-dose group (30 mg/kg). The procedure: (§1) A total of 25 C57BL/6 mice (6–8 weeks old, weighing approximately 20 g, with equal numbers of males and females) were randomly divided into five groups. Mice in the compound-treated groups were orally administered the compound once daily at doses of 0.3, 3, and 30 mg/kg for 7 consecutive days. […] Mice in the normal group were given an equal volume of normal saline at the same time points. The body weight, death rate, and behavior were observed and recorded daily for one week. After 7 days, bone marrow and blood samples were collected from the mice and lysed using 8% Triton X-100 buffer. The lysates were stored at −20 °C until testing. The activity assays for CTSC and NSPs were performed as described above. The mice were anesthetized and the tissues were taken for H&E staining.

The target in another data set is T1, CTSK (Homo sapiens, UniProt P43235).
T1 construct: purchased R&D Systems
Briefly: Human recombinant cathepsins isolated enzyme assay, CTSK. In kind it is biochemical. The following applies: read-out: CTSK Enz (IC50: μM). An excerpt: (§2) The protocol for evaluating the inhibitory potency of compounds against other cathepsins referred to the CTSC activity assay. Recombinant human CTSB, CTSL, CTSS and CTSK for testing were also purchased from R&D Systems Biotechnology Company. Recombinant human Cat G, NE, and PR3 For testing were purchased from MedChemExpress. A multi-functional microplate reader was used to measure the absorption of Z-Leu-Arg-AMC at excitation/emission wavelengths of 380/460 nm to assess the activity changes of CTSB and CTSL, while the absorption of MCA-Arg-Pro-Lys-Pro-Val-Glu-NVAL-Trp-Arg-Lys(DNP)-NH2 at 320/405 nm was measured to evaluate the activity changes of CTSS and CTSK. Different assay buffers were prepared for diluting samples and measuring the activities of specific NSPs: a buffer containing 50 mM Tris and 750 mM NaCl (pH 7.4) was used for NE and PR3; a buffer containing 50 mM Tris, 750 mM NaCl, 5 mM EDTA (pH 7.4) was used for Cat G; and a buffer containing 25 mM MES, 50 mM NaCl, 5 mM DTT (pH 6.0) was used for CTSC. Synthetic substrates were employed to assess the activities of NSPs and CTSC: H-Gly-Arg-AMC for CTSC, N-MeSuc-Ala-Ala-Pro-Val-pNA for NE, aminobenzoyl-Val-Ala-Asp-Cys-Ala-Asp-Gln-ethylenediamine 2,4-dinitrophenyl for PR3, and N-Suc-Ala-Ala-Pro-Phe-pNA for Cat G. Each group of tests was independently repeated at least 3 times, and IC50 values were calculated using SPSS 10.0.

In a further data set the target is Dipeptidyl Peptidase 8 (Homo sapiens, UniProt Q6V1X1). The data set is described as follows: Recombinant dipeptidyl peptidases isolated enzyme assay, DPP8. It counts as biochemical. The following applies: read-out: Dipeptidyl Peptidase 8 Enz (IC50: μM). An excerpt:
Table 3 Inhibitory effects of marrubiin on dipeptidyl peptidase. | column: Dipeptidyl Peptidase 8 Enz (IC50: μM)

Data set [2] deals with T2, Cat G (Homo sapiens, UniProt P08311).
T2 construct: purchased MedChemExpress
Briefly: Recombinant NSPs isolated enzyme assay, Cat G. It counts as biochemical. The following applies: read-out: Cat G Enz (IC50: μM).
Source text: as §2

The target in the next data set is Dipeptidyl Peptidase 4 (Homo sapiens, UniProt P27487). Briefly: Recombinant dipeptidyl peptidases isolated enzyme assay, DPP4. It counts as biochemical. The following applies: read-out: Dipeptidyl Peptidase 4 Enz (IC50: μM). An excerpt:
Table 3 Inhibitory effects of marrubiin on dipeptidyl peptidase. | column: Dipeptidyl Peptidase 4 Enz (IC50: μM)

Data set [3] deals with Cat G. The data set is described as follows: Cat G activity in blood and bone marrow of mice. The following applies: 30 mg/kg daily gavage, 7 days. It counts as in vivo, C57BL/6 mice. The procedure:
as §1

Data set [4] has as its system LPS-induced NO release by RAW 264.7 macrophages. Briefly: LPS-induced NO release, Griess reagent. In kind it is cell-based. The following applies: Mus musculus, RAW264.7; LPS-stimulated RAW 264.7, 24 h. The procedure:
RAW264.7 cells in the logarithmic growth phase were counted and diluted to a concentration of 6 × 10^4 cells/mL. After thorough mixing, the cell suspension was seeded into 48-well plates and incubated in a humidified atmosphere containing 5% CO2 at 37 °C. Following 24 h of incubation, the culture medium was carefully aspirated, and the cells were gently washed with phosphate-buffered saline. […] After 1 h of pre-incubation, 30 μL of lipopolysaccharide (1 μg/mL) was added to each well except for the blank control group, which remained unstimulated. Following an additional 24 h incubation under identical conditions, the culture supernatants were collected to assess NO production using the Griess reagent assay. Concentrations of pro-inflammatory cytokines and chemokines were determined using commercially available ELISA kits according to the protocols.

Data set [5] concerns Cat G. Briefly: AIA model, serum Cat G activity. In kind it is in vivo, Sprague-Dawley rats. The following applies: rat AIA, high dose 60 mg/kg gavage, 15 days. As to the method:
(§3) Thirty 4-week-old male Sprague-Dawley rats (weighing 120–130 g) were randomly divided into 6 groups (5 rats per group) after 1 week of adaptive feeding, namely the normal group, model group, low-dose experimental group (15 mg/kg), medium-dose experimental group (30 mg/kg), high-dose experimental group (60 mg/kg), and positive control group (30 mg/kg). Starting from Day 0 of the experiment, rats in the administration groups and model group were injected intradermally with 0.1 mL of CFA into the left hind paw to induce AIA, while rats in the normal group were injected intradermally with an equal volume (0.1 mL) of normal saline as a control. After 13 consecutive days of feeding, rats treated with CFA successfully developed typical AIA symptoms. […] During the experiment, the body weight, mental state, activity ability, hair color changes, and paw appearance changes of the rats were observed and recorded daily. In addition, on Day 0 of the experiment (baseline period), the basic paw volume of all rats was accurately measured using a plethysmometer, which served as a reference standard for subsequent evaluation of inflammation severity. From Day 13 to Day 28 of the experiment, the paw volume of the rats was measured repeatedly every 3 days. The degree of paw swelling was quantified by calculating the change in paw volume relative to the baseline. […] The cytokine levels in serum were measured. […]

For the next data set, the target named is T3, CTSB (Homo sapiens, UniProt P07858).
T3 construct: purchased R&D Systems
The data set is described as follows: Human recombinant cathepsins isolated enzyme assay, CTSB. In kind it is biochemical. The following applies: read-out: CTSB Enz (IC50: μM).
Source text: as §2

In a further data set the test system is PR3. Briefly: AIA model, serum PR3 activity. It counts as in vivo, Sprague-Dawley rats. The following applies: rat AIA, high dose 60 mg/kg gavage, 15 days. As to the method:
as §3

A value given as a limit tells only on which side of the number the result lay.

T1 sequence (P43235 115-329): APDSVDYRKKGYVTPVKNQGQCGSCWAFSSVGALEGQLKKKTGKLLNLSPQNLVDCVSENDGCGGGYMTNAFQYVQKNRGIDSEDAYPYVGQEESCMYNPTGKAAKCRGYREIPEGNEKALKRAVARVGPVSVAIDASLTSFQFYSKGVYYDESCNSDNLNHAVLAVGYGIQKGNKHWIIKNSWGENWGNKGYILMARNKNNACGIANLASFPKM
Sequence of Dipeptidyl Peptidase 8 (Q6V1X1 whole entry, species assumed): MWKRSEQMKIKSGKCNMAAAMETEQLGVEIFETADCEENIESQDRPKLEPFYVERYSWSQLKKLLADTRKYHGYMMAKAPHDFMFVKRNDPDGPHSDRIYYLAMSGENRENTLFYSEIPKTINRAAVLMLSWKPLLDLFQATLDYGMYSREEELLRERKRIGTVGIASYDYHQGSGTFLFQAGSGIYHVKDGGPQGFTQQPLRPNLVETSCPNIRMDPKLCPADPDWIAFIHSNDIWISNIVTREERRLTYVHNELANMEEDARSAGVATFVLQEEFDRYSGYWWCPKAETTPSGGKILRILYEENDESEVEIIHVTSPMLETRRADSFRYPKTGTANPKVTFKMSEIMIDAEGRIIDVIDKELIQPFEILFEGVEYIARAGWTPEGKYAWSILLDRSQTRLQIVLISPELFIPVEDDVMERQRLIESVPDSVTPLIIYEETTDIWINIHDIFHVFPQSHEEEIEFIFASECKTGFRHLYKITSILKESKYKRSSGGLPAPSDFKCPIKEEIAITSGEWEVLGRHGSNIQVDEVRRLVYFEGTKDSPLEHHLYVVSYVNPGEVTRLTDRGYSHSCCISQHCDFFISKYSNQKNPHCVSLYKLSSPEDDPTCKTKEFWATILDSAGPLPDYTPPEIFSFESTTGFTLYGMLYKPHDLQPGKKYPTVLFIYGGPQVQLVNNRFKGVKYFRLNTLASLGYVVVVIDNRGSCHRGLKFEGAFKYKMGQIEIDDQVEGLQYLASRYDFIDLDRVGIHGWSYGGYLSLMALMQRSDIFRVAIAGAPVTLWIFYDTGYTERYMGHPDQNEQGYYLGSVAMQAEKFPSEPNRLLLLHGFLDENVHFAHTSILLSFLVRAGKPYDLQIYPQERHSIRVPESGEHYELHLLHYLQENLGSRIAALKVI
T2 sequence (P08311 21-255): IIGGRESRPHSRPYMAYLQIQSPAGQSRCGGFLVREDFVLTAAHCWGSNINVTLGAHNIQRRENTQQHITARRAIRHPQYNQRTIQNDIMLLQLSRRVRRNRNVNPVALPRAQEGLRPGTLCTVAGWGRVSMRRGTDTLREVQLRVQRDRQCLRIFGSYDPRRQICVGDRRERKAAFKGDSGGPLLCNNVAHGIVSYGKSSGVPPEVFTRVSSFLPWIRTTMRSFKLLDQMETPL
Sequence of Dipeptidyl Peptidase 4 (P27487 whole entry, species assumed): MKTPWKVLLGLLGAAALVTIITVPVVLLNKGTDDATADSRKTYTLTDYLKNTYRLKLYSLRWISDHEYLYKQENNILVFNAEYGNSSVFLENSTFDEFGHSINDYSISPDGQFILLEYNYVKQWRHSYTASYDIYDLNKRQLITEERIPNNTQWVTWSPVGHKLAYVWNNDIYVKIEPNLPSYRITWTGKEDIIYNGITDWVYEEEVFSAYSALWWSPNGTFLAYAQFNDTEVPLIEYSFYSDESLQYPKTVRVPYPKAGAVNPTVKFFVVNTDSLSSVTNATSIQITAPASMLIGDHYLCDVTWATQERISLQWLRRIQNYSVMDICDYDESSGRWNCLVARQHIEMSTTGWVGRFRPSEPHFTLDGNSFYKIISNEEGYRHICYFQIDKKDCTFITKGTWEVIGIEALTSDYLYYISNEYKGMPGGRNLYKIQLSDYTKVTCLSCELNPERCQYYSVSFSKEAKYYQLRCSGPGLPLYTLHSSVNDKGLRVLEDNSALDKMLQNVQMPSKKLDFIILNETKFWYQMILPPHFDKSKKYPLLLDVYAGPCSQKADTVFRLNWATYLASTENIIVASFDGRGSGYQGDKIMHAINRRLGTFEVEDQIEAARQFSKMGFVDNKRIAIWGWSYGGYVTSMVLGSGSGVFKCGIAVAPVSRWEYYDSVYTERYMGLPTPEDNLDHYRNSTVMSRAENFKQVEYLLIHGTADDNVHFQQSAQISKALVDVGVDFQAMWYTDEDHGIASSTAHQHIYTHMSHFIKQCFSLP

With `C[C@@H]1C[C@H]2OC(=O)[C@@]3(C)CCC[C@@](C)([C@@H]23)[C@@]1(O)CCc1ccoc1` [Marrubiin, marrubiin], the “toxic reactions and body weight” value in data set [1] (7-day continuous administration) is “no toxic reactions or significant weight loss were observed”. The “H&E staining of tissues and organs (heart, liver, spleen, lung, kidney)” value in data set [1] (7 days) was “No pathological changes”. Also, the IC50 on CTSK is more than 5 µM; on Dipeptidyl Peptidase 8, more than 10 µM; on Cat G [2], more than 10 µM; at Dipeptidyl Peptidase 4, more than 10 µM; in [4], 0.83 µM; on CTSB, 9.8 ± 1.1 µM. Moreover, the “remaining activity rate of Cat G” value in the data set with Cat G [3] (blood) is approximately 35.5%; in the data set with Cat G [3] (bone marrow), approximately 40.2%. Also, in the data set on Cat G [5], the “serum Cat G activity, % of control group” value is given as approximately 64%. In addition, the “serum PR3 activity, % of control group” value in the data set with PR3 is approximately 50%.
